Experimental data from patent US8324284B2, “Migrastatin analogs and uses thereof” (Sloan-Kettering Institute for Cancer Research, priority 2003, dated 2012).
pIC50: −log10 of the molar value. Like-named read-outs stand apart in the source and are kept apart here. Values belong to the molecule of their own block, whether it stands above or below them.

What was measured:
[1] = rcm bond, toluene, 0.25 h
[2] = test system: 4T1 mouse breast tumor cells; assay: Chamber cell migration assay with 4T1 tumor cells; type: cell-based; conditions: for pIC50: Boyden chamber, 6-8 h, average of three experiments; for inhibitory activity on 4T1 tumor cell migration, in words: chamber assay
Procedure: The biological evaluation of the compounds (in terms of their ability to inhibit cell migration) was accomplished in a Boyden chamber cell migration assay. In this assay, mouse breast tumor cells (4T1 cells) or endothelial cells (HUVECs) are seeded on the upper chamber of a transwell insert. Growth factor-containing serum is added to the lower chamber.
Chamber Cell Migration Assay (Tables 4 and 6): Cell migrations were assayed with Boyden chambers [8.0 μm pore size, polyethylene terephthalate membrane, FALCON cell culture insert (Becton-Dickinson)]. 4T1 mouse breast tumor cells or HUVECs were trypsinized and counted. 300 μl of 5−10×10^4 cells in serum-free medium was added to the upper chamber and 500 μl of medium with 10% fetal bovine serum (FBS) was added to the lower chamber. […] Cells on the inside of the transwell inserts were removed with a cotton swab, and cells on the underside of the insert were fixed and stained. Photographs of three random regions were taken and the number of cells was counted to calculate the average number of cells that have transmigrated.

[3] = test system: HUVEC; assay: Tube formation assay; type: cell-based, human; conditions: minimal concentration causing definite disturbance of tube network; 16-18 h; tested 200, 100, 50, 25, 10 μM
Procedure: A protocol was designed based on the instructions from the provider (BD Bioscience, San Jose, Calif.). Briefly, wells of a 48 well culture dish were covert with 150 μL matrigel and the matrigel was gelatinized for 30 min at 37° C. A 80-90% confluent HUVEC (BD Bioscience, San Jose, Calif.) culture was trypsin treated, the detached cells were collected by centrifugation and resuspended in EGM-2 media (BD Bioscience, San Jose, Calif.). Cell concentration was adjusted to 100.000 cells/mL. 400 μL of the cell suspension were filled in the matrigel coated wells, and a solution of the inhibitor was added to the intended final concentration. The plates were incubated at 37° C. with 5% CO2 for 16-18 h. Media was removed, and the matrigel surface was washed twice with 500 μL PBS before cells were labeled with 250 μL […] Calcein AM (Pierce, Rockford, Ill.) in PBS for 30 min at 37° C. After two additional washing steps (500 μL PBS) cells were visualized under an inverted microscope. Fluorescence was excited at 488 nm and recorded at 538 nm. The minimum effect concentration was defined as the minimal inhibitor concentration that caused a definite disturbance of the complexity of the formed tube network.

[4] = test system: KYSE-520 cells; assay: Wound healing (scratch) assay; type: cell-based; conditions: 28 to 30 h, tested 200, 100, 50, 25, 10 μM
Procedure: The wound healing assay was performed based on the method described by Nakae et al. (Nakae et al., J. Antibiotics (2000), 53, 1130-1136). Briefly, adherent cells were grown in a suitable media to confluence (e.g. KYSE-520 cells in RPMI-1640 with 10% FBS). Cells were starved for 24 h in serum free media. A scratch (ca. 0.5 mm) was applied and the cell layer was washed twice with PBS after removal of the media. Fresh, serum free media with the test compound at the desired concentration was added and the cells were incubated for 28 to 30 h at 37° C., 5% CO2. The scratch size was compared to that observed for cells exposed to 100 μM Migrastatin. Test compounds associated with a scratch size equal to or larger than that observed for cells exposed to 100 μM Migrastatin were deemed to have cell migration inhibitory activity at least equal to Migrastatin.

[5] = test system: 4T1 tumor lung metastasis; assay: 4T1 tumor lung metastasis in syngeneic mice; type: in vivo, mouse; conditions: for lung metastasis, colonies (6-thioguanine clonogenic assay): mean and standard deviation; for inhibition of lung metastasis: 10 mg/kg i.p. daily Day 7-25
Procedure: Female BALB/c mice (6-8 week old) were purchased from the Jackson Laboratory (Bar Harbor, Me.). All mice were housed at the Weill Medical College of Cornell University Animal Facilities in accordance with the Principles of Animal Care (NIH publication no. 85-23, revised 1985). 4T1 tumor cells (1×10^5) were injected subcutaneously into the abdominal mammary gland area of mice in 0.1 ml of a single-cell suspension in phosphate buffered saline (PBS) on Day 0. The dosage of tumor implantation was empirically determined to give rise to tumor of ˜10 mm in diameter in untreated wild type mice in 21-23 days. On Day 7, when the tumors averaged in size ˜4-5 mm in diameter, migrastatin analogs or control PBS saline were given every day by intraperitoneal injection at 10 mg/kg or 20 mg/kg per mouse until Day 25. On Day 28, the mice were sacrificed. This regiment of migrastatin analogs was well tolerated with no signs of overt toxicity. Every group included five mice. Primary tumors were measured using electronic calipers on the day when the mice were sacrificed. Tumor size was the square root of the product of two perpendicular diameters. Numbers of metastatic 4T1 cells in lung were determined by the clonogenic assay.^63 In brief, lungs were removed from each mouse on Day 28, finely minced and digested in 5 ml of enzyme cocktail containing 1×PBS and 1 mg/ml collagenase type IV for 2 hours at 37° C. on a platform rocker. After incubation, samples were filtered through 70 uM nylon cell strainers and washed twice with PBS. Resulting cells were suspended and plated serially diluted in 10 cm tissue culture dishes in medium RPMI1640 containing 60 uM thioguanine for clonogenic growth. 6-Thioguanine-resistant tumor cells formed foci after 14 days, at which time they were fixed with methanol and stained with 0.03% methylene blue for counting.
Treatment 4T1 tumor lung metastasis in syngeneic mice with migrastatin analogs (See, FIG. 4). 4T1 tumor cells (10^5) were injected s.c. in the abdominal mammary gland with 0.1 ml of a single-cell suspension. Macroketone or macrolactam at 10 mg/kg or 20 mg/kg was given i.p. on Day 7 when the tumor size was about 5 mm in diameter, and every day until Day 25. On Day 28, the mice were sacrificed. Each group comprised five mice. Lung metastasis was measured by the 6-thiogunine clonogenic assay. The mean and standard deviation are presented. In the control group (daily PBS injection), there were 61300±18900 colonies.

[6] = Metabolic stability in mouse plasma; type: in vitro ADME; conditions: mouse plasma/PBS, 37° C.
Procedure: Mouse Plasma Stability Studies (Table 5): HPLC conditions: The sample is injected and separated using an Inertsil ODS3 6u 3×150 mm column with a mobile phase of MeCN and water (50% for migrastatin) at a flow of 0.4 mL/min, monitored at 220 nm at 0.02 AUFS (the retention time for migrastatin is ca. 4 min, the identity of this peak was confirmed by mass spectral analysis). Incubation and sample preparation conditions: A solution (ca. 30 mM) of chemical compound (Table 5) in DMSO is prepared. 2 μL of the solution is added to a mixture containing 200 μL of mouse plasma and 800 μL of PBS. The resulting solution is put into a water bath at 37° C., and 100 μL of sample is withdrawn at 10, 20, 30, 45, and 60 min. The precipitate is removed by centrifugation and 20 μL of the supernatant is injected onto the HPLC.

Molecule: CO[C@H]1C=CCC/C=C/C(=O)OC/C(C)=C\[C@@H](C)[C@@H]1O[Si](C)(C)C(C)(C)C
ring closure, yield of all isomers ([1]; from C=CCC/C=C/C(=O)OC/C(C)=C\[C@@H](C)[C@H](O[Si](C)(C)C(C)(C)C)[C@H](C=C)OC, Grubbs-II catalyst, 0.664 mM, 110.0 °C): 55%

Molecule: CO[C@H]1C=CCC/C=C/C(=O)O[C@H]([C@H](C)C(=O)CCCC2CC(=O)NC(=O)C2)/C(C)=C\[C@@H](C)[C@@H]1O[Si](C)(C)C(C)(C)C
ring closure, yield of all isomers ([1]; from C=CCC/C=C/C(=O)O[C@@H](/C(C)=C\[C@@H](C)[C@H](O[Si](C)(C)C(C)(C)C)[C@H](C=C)OC)[C@H](C)C(=O)CCCC1CC(=O)NC(=O)C1, Grubbs-II catalyst, 0.46 mM, 110.0 °C): 69%

Molecule: CO[C@H]1C=CCCCCC(=O)CC/C(C)=C\[C@@H](C)[C@@H]1O[Si](C)(C)C(C)(C)C
ring closure, yield of all isomers ([1]; from C=CCCCCC(=O)CC/C(C)=C\[C@@H](C)[C@H](O[Si](C)(C)C(C)(C)C)[C@H](C=C)OC, Grubbs-II, 0.508 mM, 111.0 °C): 81%

Molecule: CO[C@H]1C=CCCCCC(=O)OC/C(C)=C\[C@@H](C)[C@@H]1O[Si](C)(C)C(C)(C)C
ring closure, yield of all isomers ([1]; from C=CCCCCC(=O)OC/C(C)=C\[C@@H](C)[C@H](O[Si](C)(C)C(C)(C)C)[C@H](C=C)OC, Grubbs-II catalyst, 0.498 mM, 110.0 °C): 76%

Molecule: CO[C@H]1C=CCCCCC(=O)O[C@@H](C(C)C)/C(C)=C\[C@@H](C)[C@@H]1O
ring closure, yield of all isomers ([1]; from C=CCCCCC(=O)O[C@H](/C(C)=C\[C@@H](C)[C@H](O[Si](C)(C)C(C)(C)C)[C@H](C=C)OC)C(C)C, Grubbs-II, 0.53 mM, 111.0 °C, 2 steps): 65%

Molecule: CO[C@H]1C=CCCCCC(=O)O[C@H]([C@H](C)C(=O)CCCC2CC(=O)NC(=O)C2)/C(C)=C\[C@@H](C)[C@@H]1O[Si](C)(C)C(C)(C)C
ring closure, yield of all isomers ([1]; from C=CCCCCC(=O)O[C@@H](/C(C)=C\[C@@H](C)[C@H](O[Si](C)(C)C(C)(C)C)[C@H](C=C)OC)[C@H](C)C(=O)CCCC1CC(=O)NC(=O)C1, Grubbs-II catalyst, 0.48 mM, 110.0 °C): 79%

pIC50 [2]: 6.48
Molecule: COC1C=CCCCCC(=NNC(=O)CCOCCOCCOCCOCCNC(=O)CCCCC2SCC3NC(=O)NC32)CCC(C)=CC(C)C1O (mixture of isomers) [biotinylated macrohydrazone (73), Biotinylated Macrohydrazone]
inhibitory activity on 4T1 tumor cell migration, in words [2]: inhibitory potency is largely retained

Molecule: COC1C=CCCCCC(=O)OC(C(C)C(=O)CCCC2CC(=O)NC(=O)C2)C(C)=CC(C)C1O (stereo not shown) [2,3-dihydromigrastatin (41), 2,3-Dihydromigrastatin]
Minimum effect concentration [3]: 50 µM
Minimum effect concentration [4]: 25 µM

pIC50 [2]: 3.84
Molecule: COC1C=CCCCCC(=O)OC(C(C)C)C(C)=CC(C)C1O [(R)-isopropyl macrolactone (68), (R)-Isopropyl Macrolactone]
inhibitory activity on 4T1 tumor cell migration, in words [2]: only very weak effects on tumor cell migration

pIC50 [2]: 3.64
Molecule: COC1C=CCCCCC(=O)OC(C(C)C)C(C)=CC(C)C1O [(S)-isopropyl macrolactone (65), (S)-Isopropyl Macrolactone]
inhibitory activity on 4T1 tumor cell migration, in words [2]: only very weak effects on tumor cell migration

pIC50 [2]: 5.15
Molecule: COC1C=CCCCCC(=O)OC(C(C)C(=O)CCCC2CC(=O)N(C)C(=O)C2)C(C)=CC(C)C1O (stereo not shown) [N-methyl-2,3-dihydromigrastatin (42), N-Methyl-2,3-Dihydromigrastatin]

Molecule: CO[C@H]1/C=C/CCCCC(=O)OC/C(C)=C\[C@@H](C)[C@@H]1OC(C)=O [acetylated macrolactone (49), Acetylated Macrolactone]
inhibitory activity on 4T1 tumor cell migration, in words [2]: reduced by roughly an order of magnitude

Molecule: C[C@@H]1O[C@H]2C3=C(C(=O)[C@@H]4O[C@@H]4[C@H]3O)[C@@H]1[C@H]1[C@H](C)OC=C3[C@H](O)[C@H]4OC4C(=O)[C@@]312 (stereo partly shown) [epoxyquinol, epoxyquinol A, reference compound]
pIC50 [2]: 7.59

Molecule: CO[C@H]1/C=C/CCCCC(O)(C(F)(F)F)CC/C(C)=C\[C@@H](C)[C@@H]1O (stereo partly shown) [macrocyclic CF3-alcohol (71), Macrocyclic CF3-Alcohol]
inhibitory activity on 4T1 tumor cell migration, in words [2]: displays the same activity profile as macroketone 60

Molecule: COC1C=CCCCCC(=O)NCC(C)=CC(C)C1O (stereo not shown) [macrolactam (55), Macrolactam]
lung metastasis, colonies (6-thioguanine clonogenic assay) ([5]; 10 mg/kg i.p. daily Day 7-25, Day 28): 5333±1778 colonies
inhibition of lung metastasis ([5]; listed as macrolactam): 91%
inhibition of lung metastasis ([5]; listed as macrolactam 55): ~91%
lung metastasis, colonies (6-thioguanine clonogenic assay) ([5]; 20 mg/kg i.p. daily Day 7-25, Day 28): 5675±6263 colonies

Molecule: COC1C=CCCC=CC(=O)OCC(C)=CC(C)C1O (stereo not shown) [migrastatin core (45), Migrastatin Core]
Minimum effect concentration [3]: 10 µM
stability (t1/2, mouse plasma) [6]: 20 min
stability (t1/2, mouse plasma), in words ([6]; 60 min of incubation, stable = intensity of HPLC signal unchanged): hydrolyzed rapidly

Molecule: CO[C@H]1/C=C/CCCCC(=O)OC/C(C)=C\[C@@H](C)C1=O [oxidized macrolactone (50), Oxidized Macrolactone]
inhibitory activity on 4T1 tumor cell migration, in words [2]: reduced by roughly an order of magnitude

Molecule: N-Methyl-migrastatin
Minimum effect concentration [3]: 200 µM
Minimum effect concentration [4]: 100 µM
